The values below come from patent publication US8673889B2, “BLT2-mediated disease, BLT2 binding agent and the compound” (Ono Pharmaceutical Co., Ltd., priority 2004, dated 2014).

SMILES strings stand for the structures.

This experiment deals with T1, BLT2 (Homo sapiens, UniProt Q9NPC1).
T1 sequence (Q9NPC1 1-358): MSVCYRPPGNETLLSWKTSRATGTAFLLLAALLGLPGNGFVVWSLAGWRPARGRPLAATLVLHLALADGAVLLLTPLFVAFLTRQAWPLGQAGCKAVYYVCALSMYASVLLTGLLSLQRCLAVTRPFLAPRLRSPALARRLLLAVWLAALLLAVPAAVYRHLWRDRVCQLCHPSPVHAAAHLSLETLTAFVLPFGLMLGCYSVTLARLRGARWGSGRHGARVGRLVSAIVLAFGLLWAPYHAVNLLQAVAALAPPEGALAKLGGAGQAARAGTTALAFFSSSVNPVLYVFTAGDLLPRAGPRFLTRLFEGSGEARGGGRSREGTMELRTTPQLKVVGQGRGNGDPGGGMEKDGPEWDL
Briefly: Evaluation of BLT2 agonistic activity by monitoring the variation of intracellular Ca2+ concentration. The class given is cell-based. Details: expressed in transfected cells. The settings on record: classification of the compounds (1) to (46).
As for `CCCCN(Cc1ccc(-c2ccccc2-c2nnn[nH]2)cc1)C(=O)NCCc1ccccc1` [(5), N-butyl-N′-(2-phenylethyl)-N-{[2′-(1H-tetrazol-5-yl)biphenyl-4-yl]methyl}urea], the BLT2 agonistic activity entry is “BLT2 agonistic activity”.

In the case of `CCCCN(Cc1ccc(-c2ccccc2-c2nnn[nH]2)cc1)C(=O)NC(C)C` [(7), N-butyl-N′-isopropyl-N-{[2′-(1H-tetrazol-5-yl)biphenyl-4-yl]methyl}urea], the BLT2 agonistic activity entry is on record as “BLT2 agonistic activity”.

For `CCCCN(Cc1ccc(-c2ccccc2-c2nnn[nH]2)cc1)C(=O)NCCc1ccc(O)cc1` [(9), N-butyl-N′-[2-(4-hydroxyphenyl)ethyl]-N-{[2′-(1H-tetrazol-5-yl)biphenyl-4-yl]methyl}urea], the BLT2 agonistic activity entry is “BLT2 agonistic activity”.

As for `CCCCN(Cc1ccc(-c2ccccc2-c2nnn[nH]2)cc1)C(=S)NCC(=O)OC` [(10), methyl N-[(butyl {[2′-(1H-tetrazol-5-yl)biphenyl-4-yl]methyl}amino)carbonothioyl]glycinate], the BLT2 agonistic activity entry is on record as “BLT2 agonistic activity”.

For `CCCCNC(=O)N(CCCC)Cc1ccc(-c2ccccc2-c2nnn[nH]2)cc1` [(11), N,N′-dibutyl-N-{[2′-(1H-tetrazol-5-yl)biphenyl-4-yl]methyl}urea], the BLT2 agonistic activity entry was “BLT2 agonistic activity”.

Consider `CCCCN(Cc1ccc(-c2ccccc2-c2nnn[nH]2)cc1)C(=O)NC1CCCCC1` [(12), N-butyl-N′-cyclohexyl-N-{[2′-(1H-tetrazol-5-yl)biphenyl-4-yl]methyl}urea], for which the BLT2 agonistic activity result is recorded as “BLT2 agonistic activity”.

In the case of `CCCCN(Cc1ccc(-c2ccccc2-c2nnn[nH]2)cc1)C(=O)Nc1ccccc1` [(13), N-butyl-N′-phenyl-N-{[2′-(1H-tetrazol-5-yl)biphenyl-4-yl]methyl}urea], the BLT2 agonistic activity result is “BLT2 agonistic activity”.

As for `CCCCN(Cc1ccc(-c2ccccc2-c2nnn[nH]2)cc1)C(=O)Nc1cccc(OC)c1` [(16), N-butyl-N′-(3-methoxyphenyl)-N-{[2′-(1H-tetrazol-5-yl)biphenyl-4-yl]methyl}urea], the BLT2 agonistic activity result is listed as “BLT2 agonistic activity”.

Turning to `CCCCN(Cc1ccc(-c2ccccc2-c2nnn[nH]2)cc1)C(=O)Nc1ccc(OC)cc1` [(17), N-butyl-N′-(4-methoxyphenyl)-N-{[2′-(1H-tetrazol-5-yl)biphenyl-4-yl]methyl}urea], the BLT2 agonistic activity entry is given as “BLT2 agonistic activity”.

Regarding `CCCCN(Cc1ccc(-c2ccccc2-c2nnn[nH]2)cc1)C(=O)Nc1cccc(C(=O)OCC)c1` [(19)], the BLT2 agonistic activity result is “BLT2 agonistic activity”.

As for `CCCCN(Cc1ccc(-c2ccccc2-c2nnn[nH]2)cc1)C(=O)Nc1ccc(C)cc1` [(20), N-butyl-N′-(4-methylphenyl)-N-{[2′-(1H-tetrazol-5-yl)biphenyl-4-yl]methyl}urea], the BLT2 agonistic activity entry is “BLT2 agonistic activity”.

`CCCCN(Cc1ccc(-c2ccccc2-c2nnn[nH]2)cc1)C(=O)N[C@@H](C)c1ccccc1` [(21), N-butyl-N′-[(1S)-1-phenylethyl]-N-{[2′-(1H-tetrazol-5-yl)biphenyl-4-yl]methyl}urea]: the BLT2 agonistic activity result was “BLT2 agonistic activity”.

Take `CCCCN(Cc1ccc(-c2ccccc2-c2nnn[nH]2)cc1)C(=O)NCc1ccccc1` [(22), N′-benzyl-N-butyl-N-{[2′-(1H-tetrazol-5-yl)biphenyl-4-yl]methyl}urea]: the BLT2 agonistic activity result is listed as “BLT2 agonistic activity”.

`CCCCN(Cc1ccc(-c2ccccc2-c2nnn[nH]2)cc1)C(=O)Nc1ccc(F)c(F)c1` [(30), N-butyl-N′-(3,4-difluorophenyl)-N-{[2′-(1H-tetrazol-5-yl)biphenyl-4-yl]methyl}urea]: the BLT2 agonistic activity result is “BLT2 agonistic activity”.

On to `CCCCN(Cc1ccc(-c2ccccc2-c2nnn[nH]2)cc1)C(=O)NC(=O)OCC` [(34), ethyl[(butyl{[2′-(1H-tetrazol-5-yl)biphenyl-4-yl]methyl}amino)carbonyl]carbamate], for which the BLT2 agonistic activity entry is given as “BLT2 agonistic activity”.
